From publication PMC6395926, “Mass Balance and Drug Interaction Potential of Intravenous Eravacycline Administered to Healthy Subjects” (Antimicrobial Agents and Chemotherapy, 2019)
Entries after “also recorded” stand apart in the source; their conditions may differ. Like-named read-outs stand apart in the source and are kept apart here.

Columns and labels:
[1] = Mass balance study: plasma PK of eravacycline, TP-498 and TP-6208 (LC-MS); assay type: in vivo, human; details: in vivo, iv
Description: (ii) Study design. This was a single-center, open-label study of a single i.v. dose of [^14C]eravacycline to assess the mass balance recovery and PK of eravacycline. The primary objectives were to determine mass balance recovery, determine routes and rates of excretion, provide metabolite profiling and structural identification, and assess the PK of radioactivity in plasma and whole blood. Subjects were screened for inclusion in the study, including a detailed medical history, physical examination, and laboratory evaluations, in the 28 days before dosing. Eligible subjects were admitted to the clinical study unit at approximately 21:00 on the evening prior to study drug administration (day −1) and remained on site until 240 h postdose for collection of urine, feces, and blood samples. After an overnight fast, each subject received 60 mg [^14C]eravacycline containing not more than 3.8 MBq (105 μCi) ^14C as a single i.v. infusion over 60 min.
(vi) Study assessments. PK parameters were determined for total radioactivity in plasma and whole blood. Eravacycline, TP-498, and TP-6208 concentrations in plasma were quantified using a validated assay with internal standards. The following PK parameters were determined: Cmax, Tmax, time from dosing before the first quantifiable concentration in a concentration versus time profile (Tlag), AUC0–t, AUC0–24, AUC0–∞, the percentage of AUC0–∞ extrapolated beyond the time of the last measurable concentration (AUC%extrap), the slope of the apparent terminal phase (lambda-z), the apparent terminal half-life (t1/2), the mean residence time estimated between time zero and infinity (MRT0-∞), the apparent volume of plasma cleared of analyte per unit time (CL), and the volume of distribution of analyte at steady state (Vss).
Plasma concentrations of eravacycline, TP-498, and TP-6208 were measured by liquid chromatography with tandem mass spectrometry (LC-MS). The LLOQ was 5 ng/ml for eravacycline, TP-498, and TP-6208. The calibration ranges for eravacycline, TP-498, and TP-6208 in human urine were 50 to 10,000 ng/ml, 50 to 1,000 ng/ml, and 20 to 1,000 ng/ml, respectively. The calibration ranges for eravacycline, TP-498, and TP-6208 in human plasma were 5 to 500 ng/ml.
(viii) Study analysis. Descriptive statistics (mean, median, standard deviation [SD], percent coefficient of variation [%CV], minimum, maximum, number, geometric mean, and geometric %CV) were calculated for all concentration data. Pharmacokinetic parameters were calculated using Phoenix WinNonlin v6.3 (Certera USA, Inc.).

[2] = Drug interaction study with rifampin (CYP3A4 inducer): plasma PK of i.v. eravacycline and metabolites; assay type: in vivo, human; details: in vivo
Description: Two single-center, open-label studies were conducted to evaluate the effects of itraconazole (CYP3A4 inhibitor) and rifampin (CYP3A4 inducer) on the pharmacokinetics of i.v. eravacycline in healthy subjects.
(ii) Study design. Each study included a 28-day screening period, a 13-day treatment period (19 days for rifampin), and an end-of-study visit 2 weeks after the last dose of study drug. […] For the itraconazole study, 200 mg oral itraconazole was administered q12h on day 8 and q24h on days 9 and 10. For the rifampin study, 600 mg oral rifampin was administered q24h from day 8 to day 17. All study treatments were administered in the fasting state.
(§1) (iii) Study assessments. Blood samples for PK analysis of eravacycline and its metabolites, TP-498, TP-6208, and TP-034, were collected predose and 1, 2, 4, 6, 8, 12, 24, 36, and 48 h after the start of the i.v. infusion on day 1 and day 10 (itraconazole) or day 1 and day 17 (rifampin). Safety assessments included AEs, clinical laboratory safety tests (hematology, serum chemistry, electrolytes, coagulation, urinalysis, and lipid profile), vital signs, physical examinations, and 12-lead ECG.
Concentrations of eravacycline, TP-498, and TP-6208 in human plasma samples were measured by LC-tandem MS after solid-phase extraction over a calibration range of 5.00 to 500 ng/ml. The LLOQ for eravacycline, TP-498, TP-6208, and TP-034 in human plasma was 5.00 ng/ml. Samples with eravacycline initial concentrations above the upper limit of quantification (500 ng/ml) were diluted appropriately with control blank human plasma and reanalyzed. There was no interference seen when human plasma was fortified with eravacycline, TP-498, TP-6208, and either itraconazole or rifampin.
(iv) Pharmacokinetic analysis. PK assessments included Cmax, Tmax, AUC0–24, AUC0–t, t1/2, CL, and Vss. Actual sampling time was used for PK calculations. PK parameters were derived by noncompartmental analysis. Descriptive statistics were calculated for analyte concentrations at each evaluation time point and for all quantitative PK parameters of eravacycline, TP-498, TP-6208, and TP-034 for day 1 and day 10 (day 17 for rifampin). The effect of itraconazole or rifampin on the PK profile of i.v. eravacycline was evaluated by comparing log-transformed PK parameters (Cmax and AUC0–t) associated with the administration of study drug on day 1 and day 10 (itraconazole) or day 1 and day 17 (rifampin) using paired t tests. The ratio and 90% confidence interval (CI) were presented after back transformation to the original scale. Pharmacokinetic variables were calculated using WinNonlin Professional.

[3] = in vitro; previous studies, no reference given; cited from earlier work
[4] = Itraconazole drug interaction study: safety/tolerability; assay type: in vivo, human; details: itraconazole treatment period, 3 of 11 subjects
Description: as §1

[5] = parameters: species or system human; details: human, in vivo
Description: as §1

Compound	CLR ([1]; human) [mL/min]	Cmax ([1]; human) [ng/mL]	geometric mean AUC0–t, fold lower than that of eravacycline ([1]; human) [fold]	geometric mean Cmax, fold lower than that of eravacycline ([1]; human) [fold]	time postdose plasma concentrations were quantifiable [1] [h]	Mean Cmax and AUC0–24 when eravacycline was dosed with or without rifampin [2]	antimicrobial activity [3]	AUC0–∞ ([1]; human)	geometric mean AUC0–∞, fold lower than that of eravacycline ([1]; human) [fold]	t1/2 ([1]; human)	subjects who experienced an AE [4] [%]	subjects who experienced an AE [5] [%]
CN(C)[C@H]1C(O)=C(C(N)=O)C(=O)[C@@]2(O)C(O)=C3C(=O)c4c(O)c(NC(=O)CN5CCCC5)cc(F)c4C[C@H]3C[C@@H]12 [TP-498]	85.7 ± 35.5	20.4 ± 18.9	13.5	53.9	37 to 49	similar	no in vitro antimicrobial activity; also recorded: None exhibit antimicrobial activity					
CN(C)[C@@H]1C(=O)C(C(N)=O)=C(O)[C@@]2(O)C(=O)C3=C(O)c4c(O)c(N5C(=O)CN6CCCC65)cc(F)c4C[C@H]3C[C@@H]12 (some centres unmarked) [TP-6208]		42.8 ± 28.9	2.9	25.7	49 to 73		no in vitro antimicrobial activity; also recorded: None exhibit antimicrobial activity	1780 ± 26.9 (n = 2) h·ng/ml	2.5	18.8 ± 17.8 (n = 2) h		
CCC(C)n1ncn(-c2ccc(N3CCN(c4ccc(OCC5COC(Cn6cncn6)(c6ccc(Cl)cc6Cl)O5)cc4)CC3)cc2)c1=O (centres unmarked) [itraconazole, reference compound]											27.3	
CO[C@H]1/C=C/O[C@@]2(C)Oc3c(C)c(O)c4c(O)c(c(/C=N/N5CCN(C)CC5)c(O)c4c3C2=O)NC(=O)/C(C)=C\C=C\[C@H](C)[C@H](O)[C@@H](C)[C@@H](O)[C@@H](C)[C@H](OC(C)=O)[C@@H]1C [rifampin, reference compound]												8.3
